In PubChem BioAssay (NCI):
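All cell lines were grown in 96-well plates and treated with compound for 48 hours. TGI marks complete inhibition of growth.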

Key:
Test in all cases: growth of human tumour cells (NCI), 48 h
NCI-H522 lung = system: NCI-H522 lung
LOX IMVI melanoma = system: LOX IMVI melanoma
HOP-62 NSCLC = system: HOP-62 NSCLC
M14 melanoma = system: M14 melanoma
NCI-H460 lung = system: NCI-H460 lung
HCT-15 colon = system: HCT-15 colon
A498 renal = system: A498 renal
ACHN renal = system: ACHN renal
SK-MEL-28 melanoma = system: SK-MEL-28 melanoma
HCC-2998 colon = system: HCC-2998 colon
IGROV1 ovarian = system: IGROV1 ovarian
NCI-H23 lung = system: NCI-H23 lung
OVCAR-5 ovarian = system: OVCAR-5 ovarian
EKVX NSCLC = system: EKVX NSCLC
CCRF-CEM leukemia = system: CCRF-CEM leukemia
OVCAR-8 ovarian = system: OVCAR-8 ovarian
MDA-MB-435 = system: MDA-MB-435
TK-10 renal = system: TK-10 renal
UACC-257 melanoma = system: UACC-257 melanoma
SK-MEL-5 melanoma = system: SK-MEL-5 melanoma
SNB-75 CNS = system: SNB-75 CNS
SK-OV-3 ovarian = system: SK-OV-3 ovarian
PC-3 prostate = system: PC-3 prostate
COLO 205 colon = system: COLO 205 colon
RXF 393 renal = system: RXF 393 renal
MALME-3M melanoma = system: MALME-3M melanoma
OVCAR-4 ovarian = system: OVCAR-4 ovarian
HT29 colon = system: HT29 colon
OVCAR-3 ovarian = system: OVCAR-3 ovarian
A549 NSCLC = system: A549 NSCLC
MOLT-4 leukemia = system: MOLT-4 leukemia
HL-60(TB) leukemia = system: HL-60(TB) leukemia
SF-539 CNS = system: SF-539 CNS
MCF7 breast = system: MCF7 breast
SNB-19 CNS = system: SNB-19 CNS
CAKI-1 renal = system: CAKI-1 renal
SF-268 CNS = system: SF-268 CNS
SN12C renal = system: SN12C renal
786-0 renal = system: 786-0 renal
MDA-N = system: MDA-N
SW-620 colon = system: SW-620 colon
NCI/ADR-RES ovarian = system: NCI/ADR-RES ovarian
U251 CNS = system: U251 CNS
K-562 leukemia = system: K-562 leukemia
SF-295 CNS = system: SF-295 CNS
HS 578T breast = system: HS 578T breast
HCT-116 colon = system: HCT-116 colon
UO-31 renal = system: UO-31 renal
SK-MEL-2 melanoma = system: SK-MEL-2 melanoma
KM12 colon = system: KM12 colon
DU-145 prostate = system: DU-145 prostate
T-47D breast = system: T-47D breast
BT-549 breast = system: BT-549 breast
UACC-62 melanoma = system: UACC-62 melanoma
MDA-MB-231 breast = system: MDA-MB-231 breast
SR leukemia = system: SR leukemia
NCI-H226 lung = system: NCI-H226 lung
HOP-92 NSCLC = system: HOP-92 NSCLC

Measured: TGI

COP(=O)(/C=C/c1cc(C(=O)OCc2ccccc2)n(S(=O)(=O)c2ccccc2)c1)OC
not listed: SR leukemia | NCI-H226 lung | HOP-92 NSCLC
> 100 µM: all other assays above

COc1cccc(CCCNC(=O)Cc2cc(OC)c(OC)cc2CO)c1
not listed: NCI-H522 lung | SK-OV-3 ovarian | RXF 393 renal | SF-539 CNS | MCF7 breast | SF-268 CNS | SF-295 CNS
> 100 µM: all other assays above
